Laboratory results reported in US11311624B2, “Inhibitors of MEK/PI3K, JAK/MEK, JAK/PI3K/mTOR and MEK/PI3K/mTOR biological pathways and methods for improving lymphatic uptake, bioavailability, and solubility of therapeutic compounds” (THE REGENTS OF THE UNIVERSITY OF MICHIGAN, priority 2017, dated 2022).
Read-outs that look alike come from different tables or passages of the source.

Tests used:
[1] = test system: Class 1 PI3K isoforms; conditions: read-out: selectivity towards the Class 1 PI3K isoforms; cited from earlier work
[2] = Tissue concentration partitioning (plasma, mesenteric lymph node, fat) after single oral dose in Maisine, LC-MS/MS; assay type: in vivo; conditions: mice, single oral 10 mg in Maisine; for Kp at 4 h: 4 hour time point; for concentration at 4 h: 4 hours post-dosing
From the text: Inhibitor compounds were synthesized to discover the underlying parameters needed in the development of chemical modifiers compatible with attachment to drug molecules to provide a drug having the physiochemical characteristics needed for uptake into the lymphatic system. […] This excipient vehicle contains long chain fatty acids and is used for hydrophobic compound solubilization.
Results were quantified using LC-MS/MS for plasma, mesenteric lymph node (LN) and mesenteric fat tissues.

[3] = Plasma and lymphatic tissue levels after single oral dose of ST-168 or PD901, LC-MS/MS (FIG. 3); assay type: in vivo; conditions: mouse; for Kp at 4 h: lymphatic tissue / plasma, single oral dose in ORA-Plus suspension, 4 hours post-administration, read-out: lymphatic/plasma ratio
Description: LC-MS/MS quantification of drug concentrations in mouse tissues over time following a single oral dose is shown. FIG. 3 contains block diagrams for formulations in ORA-Plus liquid particulate suspension: FIG. 3A compound ST-168 levels at 4 hours in plasma and lymphatic tissue versus the MEK inhibitor PD0325901 (henceforth referred to as PD901). FIG. 3B ST-168 time dependence in plasma and lymphatic tissue, and formulated in Maisine, FIG. 3C ST-168 time dependence in plasma and lymphatic tissue following 100 mg/kg dose.
In FIG. 3, LC-MS/MS quantification of drug concentrations in mouse tissues over time are shown following a single oral suspension dose of ST-168 delivered in ORA-Plus®. ORA-Plus is an aqueous-based vehicle (ORA-Plus Product Data Sheet available at Perrigo Company's website) containing a synergistic blend of suspending agents having a high degree of colloidal activity. The suspending agents form a structured, gel-like matrix which suspends particles and allow for little settling. ORA-Plus is buffered to a slightly acidic pH to help reduce degradation of medicinal agents through oxidation. The ORA-Plus contains purified water, microcrystalline cellulose, carboxymethylcellulose sodium, xanthan gum, carrageenan, calcium sulfate, trisodium phosphate, citric acid and sodium phosphate as buffers and dimethicone antifoam emulsion, preserved with methylparaben and potassium sorbate. […] Any compound delivered in ORA-Plus is distributed to the plasma and lymphatic system based upon the physiochemical properties of the drug. Thus, the formulation itself only serves to provide for a suspension of drug particulates and dissolution of drug will be based upon water solubility.
This is an important distinction showing that Compound ST-168 has lymphatic absorptive properties because ORA-Plus is not a long chain fatty acid like Maisine. […] Data presented in FIGS. 3A through 3D reveal that the mEG linker technology for chemical coupling with drugs produces solubility properties consistent with formulation and bioavailability required for drug-like pharmaceutical characteristics and improved lymphatic absorption.

[4] = target: MEK1 (Homo sapiens, UniProt Q02750); experiment: In vitro inhibition of MEK1; assay type: biochemical
[5] = target: PI3Kδ (Homo sapiens, UniProt O00329); experiment: In vitro inhibition of PI3Kδ; assay type: biochemical
[6] = target: PI3Kβ (Homo sapiens, UniProt P42338); experiment: In vitro inhibition of PI3Kβ; assay type: biochemical
[7] = target: PI3Kγ (Homo sapiens, UniProt P48736); experiment: In vitro inhibition of PI3Kγ; assay type: biochemical
[8] = target: PI3Kα (Homo sapiens, UniProt P42336); experiment: In vitro inhibition of PI3Kα; assay type: biochemical
[9] = test system: A375 xenografts; experiment: Tumor growth inhibition in melanoma xenograft model (FIG. 5C); assay type: in vivo, nude mice; conditions: for tumor growth: 400 mg/kg oral once daily, initial 30 days
Description: (§1) ADME (absorption, distribution, metabolism, and excretion) studies of ST-168 have shown that ST-168 is bioavailable following administration in mice.
(§2) In FIG. 5A, a two-dimensional assessment of ST-162 and ST-168. […] In FIG. 5B, assessment of dead cells in 3D melanoma spheroids post-treatment with ST-162 and ST-168. A375 melanoma spheroids were treated for 72 h with 20 μM each of ST-162 or ST-168 before staining with Calcein AM and ethidium homodimer-1 for fluorescent microscopy (live/dead viability assay, Molecular Probes). Green fluorescence indicates live cells, and red fluorescence indicates dead cells. Images were obtained with an Olympus IX70 fluorescent microscope using the SPOT advance program. In FIG. 5C tumor growth inhibition by ST-162 and ST-168 in a melanoma xenograft model. Tumor implantation consisted of inoculation of 5×10^6 A375 cells suspended in 100 μL of media into the flank of nude mice. Treatment was initiated once tumors reached >100 mm^3. Mice were randomized into two treatment groups and treated once daily with either vehicle (200 μL of OraPlus) or 400 mg/kg each of ST-162 or ST-168 by oral gavage until sacrifice (42 days). Changes in tumor growth of A375 xenografts were assessed by conducting MRI imaging twice per week. Tumor volume changes between ST-162 and ST-168 treatment were determined to be statistically significant (p<0.05) using an unpaired Student's t test at the last time point. Experimental design: n=4-6 tumors/treatment group.

[10] = test system: pERK1/2 and pAKT; experiment: Immunoblot of treated A375 melanoma cells (FIG. 5A); assay type: cell-based, human; conditions: 1 h, 20 μM
Description: as §1
as §2, with “Mice were randomized into two treatment groups and treated once daily with either vehicle (200 μL of OraPlus) or 400 mg/kg each of ST-162 or ST-168 by oral gavage until sacrifice (42 days).” left out, “Experimental design: n=4-6 tumors/treatment group.” left out

[11] = Tolerance in colorectal, glioma and melanoma mouse xenograft models; assay type: in vivo; conditions: 400 mg/kg orally, suspended in ORA-Plus, glioma, melanoma xenograft models
From the text: as §1

[12] = test system: TGFα-transgenic mouse model of idiopathic pulmonary fibrosis (IPF); experiment: Dox-inducible TGFα-transgenic mouse model of idiopathic pulmonary fibrosis; assay type: in vivo, mice; conditions: 400 mg/kg PO, 3 week follow up CT scan
Description: Treatment of inflammatory-mediated fibrotic diseases were also evaluated using a doxycycline (Dox)-inducible transforming growth factor-α (TGFα)-transgenic mouse model of idiopathic pulmonary fibrosis (IPF) expressing lung-epithelial specific TGFα following Dox administration. […] Weekly lung micro-CT exams were used for assessment of fibrotic burden. Nintenadib (n=5) (100 mg/kg) was also evaluated for comparison. Lung tissue was examined microscopy in a subset of animals at the conclusion of the study.

[13] = ADME studies of ST-168 in mice; assay type: in vivo
From the text: as §1

[14] = Mesenteric lymph duct cannulation rat model, lymphatic transport (FIG. 8); assay type: in vivo; conditions: 50 mg/kg intraduodenal, pretreatment with cycloheximide
From the text: Evaluation of compound mechanism for lymphatic uptake was also undertaken.

[15] = mouse, mesenteric lymph node / plasma, read-out: lymph/plasma ratio
[16] = Table 14, read-out: IC50 (nM) PI3Kδ
[17] = Table 14, read-out: IC50 (nM) PI3Kβ
[18] = Table 14, read-out: IC50 (nM) PI3Kγ
[19] = Table 14, read-out: IC50 (nM) PI3Kα
[20] = Table 10B, inhibitory activity, unit inferred, read-out: PI3Kα

PI3Kβ, sequence (P42338 whole entry, species assumed): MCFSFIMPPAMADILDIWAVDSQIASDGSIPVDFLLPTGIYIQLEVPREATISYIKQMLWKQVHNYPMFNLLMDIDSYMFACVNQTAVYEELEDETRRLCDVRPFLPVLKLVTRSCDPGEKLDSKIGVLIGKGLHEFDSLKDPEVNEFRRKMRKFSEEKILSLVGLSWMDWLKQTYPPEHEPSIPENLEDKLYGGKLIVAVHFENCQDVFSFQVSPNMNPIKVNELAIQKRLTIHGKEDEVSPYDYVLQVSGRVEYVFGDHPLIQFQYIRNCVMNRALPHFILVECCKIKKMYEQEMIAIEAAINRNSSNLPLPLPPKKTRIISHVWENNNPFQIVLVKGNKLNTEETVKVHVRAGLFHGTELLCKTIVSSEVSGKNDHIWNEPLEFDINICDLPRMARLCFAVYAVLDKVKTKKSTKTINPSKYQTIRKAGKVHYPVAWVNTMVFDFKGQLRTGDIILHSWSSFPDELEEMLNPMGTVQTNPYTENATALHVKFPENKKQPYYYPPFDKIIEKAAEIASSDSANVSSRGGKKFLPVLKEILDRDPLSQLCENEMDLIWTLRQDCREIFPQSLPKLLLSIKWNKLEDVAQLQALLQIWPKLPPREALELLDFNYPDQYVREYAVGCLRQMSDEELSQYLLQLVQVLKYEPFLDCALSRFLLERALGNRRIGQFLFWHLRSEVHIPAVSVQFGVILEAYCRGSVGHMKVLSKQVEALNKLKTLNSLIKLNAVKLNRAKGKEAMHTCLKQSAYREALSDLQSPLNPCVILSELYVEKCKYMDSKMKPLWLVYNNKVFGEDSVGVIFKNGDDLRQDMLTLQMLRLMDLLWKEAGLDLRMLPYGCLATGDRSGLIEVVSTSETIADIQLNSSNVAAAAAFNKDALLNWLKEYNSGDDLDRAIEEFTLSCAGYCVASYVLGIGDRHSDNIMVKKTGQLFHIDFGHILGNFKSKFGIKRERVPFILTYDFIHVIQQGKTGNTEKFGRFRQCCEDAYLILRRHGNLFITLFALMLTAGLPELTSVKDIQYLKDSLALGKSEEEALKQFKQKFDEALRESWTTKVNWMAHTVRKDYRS
PI3Kβ, sequence (P27986 whole entry partner, species assumed): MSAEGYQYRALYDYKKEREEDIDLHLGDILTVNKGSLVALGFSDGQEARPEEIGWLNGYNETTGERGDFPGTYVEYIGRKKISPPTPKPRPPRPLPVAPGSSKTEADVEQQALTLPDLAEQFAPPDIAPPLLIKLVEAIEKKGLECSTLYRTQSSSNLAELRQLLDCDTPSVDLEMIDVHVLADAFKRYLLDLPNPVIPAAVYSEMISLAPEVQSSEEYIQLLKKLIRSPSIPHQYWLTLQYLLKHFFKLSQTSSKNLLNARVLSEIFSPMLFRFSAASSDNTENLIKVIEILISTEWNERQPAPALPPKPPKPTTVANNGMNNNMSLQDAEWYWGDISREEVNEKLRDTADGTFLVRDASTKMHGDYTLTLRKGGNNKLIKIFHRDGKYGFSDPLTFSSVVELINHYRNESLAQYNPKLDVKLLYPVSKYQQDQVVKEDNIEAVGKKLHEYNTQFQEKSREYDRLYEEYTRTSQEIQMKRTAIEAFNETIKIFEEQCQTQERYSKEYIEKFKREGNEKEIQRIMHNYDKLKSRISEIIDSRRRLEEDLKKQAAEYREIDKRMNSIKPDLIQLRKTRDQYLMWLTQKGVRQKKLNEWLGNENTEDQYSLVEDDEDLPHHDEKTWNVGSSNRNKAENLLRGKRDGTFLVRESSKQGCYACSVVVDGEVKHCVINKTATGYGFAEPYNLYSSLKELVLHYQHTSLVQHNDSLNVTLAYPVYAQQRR
PI3Kγ, sequence (P48736 whole entry, species assumed): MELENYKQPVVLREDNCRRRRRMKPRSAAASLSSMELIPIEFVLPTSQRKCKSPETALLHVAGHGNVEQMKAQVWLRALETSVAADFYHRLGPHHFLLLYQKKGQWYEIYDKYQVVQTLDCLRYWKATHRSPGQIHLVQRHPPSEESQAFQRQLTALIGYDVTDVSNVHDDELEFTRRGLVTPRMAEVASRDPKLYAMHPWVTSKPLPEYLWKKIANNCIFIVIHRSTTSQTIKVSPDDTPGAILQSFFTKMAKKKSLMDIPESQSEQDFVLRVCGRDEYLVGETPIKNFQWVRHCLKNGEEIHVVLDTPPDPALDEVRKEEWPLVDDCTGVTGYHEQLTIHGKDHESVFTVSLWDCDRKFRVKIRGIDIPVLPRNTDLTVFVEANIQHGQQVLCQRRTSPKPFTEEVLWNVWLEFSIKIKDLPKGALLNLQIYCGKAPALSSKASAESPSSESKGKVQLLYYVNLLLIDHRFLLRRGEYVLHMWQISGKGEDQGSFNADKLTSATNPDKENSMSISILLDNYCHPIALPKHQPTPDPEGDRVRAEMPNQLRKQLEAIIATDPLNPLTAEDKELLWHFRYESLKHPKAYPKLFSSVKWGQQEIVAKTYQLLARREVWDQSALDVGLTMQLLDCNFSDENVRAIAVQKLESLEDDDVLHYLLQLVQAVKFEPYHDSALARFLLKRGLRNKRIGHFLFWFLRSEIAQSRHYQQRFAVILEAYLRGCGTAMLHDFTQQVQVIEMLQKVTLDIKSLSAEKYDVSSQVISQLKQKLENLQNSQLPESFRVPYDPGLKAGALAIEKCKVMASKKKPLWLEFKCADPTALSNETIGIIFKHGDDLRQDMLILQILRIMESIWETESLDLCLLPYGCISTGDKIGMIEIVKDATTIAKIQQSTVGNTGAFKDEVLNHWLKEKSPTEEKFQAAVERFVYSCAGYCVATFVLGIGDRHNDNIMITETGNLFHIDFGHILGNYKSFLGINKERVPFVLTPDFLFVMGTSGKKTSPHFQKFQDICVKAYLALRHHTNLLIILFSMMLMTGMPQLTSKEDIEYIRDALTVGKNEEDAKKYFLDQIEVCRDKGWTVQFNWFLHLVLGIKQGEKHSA
PI3Kδ, sequence (O00329 whole entry, species assumed): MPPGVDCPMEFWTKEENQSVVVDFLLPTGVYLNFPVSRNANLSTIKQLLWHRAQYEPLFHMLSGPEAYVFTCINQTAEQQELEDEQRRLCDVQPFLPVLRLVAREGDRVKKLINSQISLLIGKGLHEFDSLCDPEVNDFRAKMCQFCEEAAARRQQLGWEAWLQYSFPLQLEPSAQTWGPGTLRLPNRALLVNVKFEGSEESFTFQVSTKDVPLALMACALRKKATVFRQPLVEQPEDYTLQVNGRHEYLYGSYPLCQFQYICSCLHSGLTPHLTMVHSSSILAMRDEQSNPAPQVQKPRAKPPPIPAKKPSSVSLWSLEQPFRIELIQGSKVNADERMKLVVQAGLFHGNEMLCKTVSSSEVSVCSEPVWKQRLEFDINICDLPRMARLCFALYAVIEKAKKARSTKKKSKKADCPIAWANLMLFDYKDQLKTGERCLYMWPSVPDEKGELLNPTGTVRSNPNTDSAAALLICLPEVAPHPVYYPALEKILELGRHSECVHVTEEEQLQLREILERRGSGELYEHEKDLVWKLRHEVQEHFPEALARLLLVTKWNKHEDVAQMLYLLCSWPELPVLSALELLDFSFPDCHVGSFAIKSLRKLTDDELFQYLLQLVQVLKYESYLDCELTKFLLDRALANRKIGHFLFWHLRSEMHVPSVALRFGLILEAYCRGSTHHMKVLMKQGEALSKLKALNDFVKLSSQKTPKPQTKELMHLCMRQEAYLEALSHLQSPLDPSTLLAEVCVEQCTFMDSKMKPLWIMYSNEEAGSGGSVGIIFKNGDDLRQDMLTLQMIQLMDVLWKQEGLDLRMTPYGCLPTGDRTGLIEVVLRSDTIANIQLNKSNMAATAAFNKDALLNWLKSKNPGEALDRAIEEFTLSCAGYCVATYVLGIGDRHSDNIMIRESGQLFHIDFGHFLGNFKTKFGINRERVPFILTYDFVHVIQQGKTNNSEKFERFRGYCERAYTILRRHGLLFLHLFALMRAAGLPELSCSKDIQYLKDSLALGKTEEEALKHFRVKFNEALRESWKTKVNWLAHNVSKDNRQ
PI3Kδ, sequence (P27986 whole entry partner, species assumed): as the sequence (P27986 whole entry partner, species assumed) above
MEK1, sequence (Q02750 whole entry, species assumed): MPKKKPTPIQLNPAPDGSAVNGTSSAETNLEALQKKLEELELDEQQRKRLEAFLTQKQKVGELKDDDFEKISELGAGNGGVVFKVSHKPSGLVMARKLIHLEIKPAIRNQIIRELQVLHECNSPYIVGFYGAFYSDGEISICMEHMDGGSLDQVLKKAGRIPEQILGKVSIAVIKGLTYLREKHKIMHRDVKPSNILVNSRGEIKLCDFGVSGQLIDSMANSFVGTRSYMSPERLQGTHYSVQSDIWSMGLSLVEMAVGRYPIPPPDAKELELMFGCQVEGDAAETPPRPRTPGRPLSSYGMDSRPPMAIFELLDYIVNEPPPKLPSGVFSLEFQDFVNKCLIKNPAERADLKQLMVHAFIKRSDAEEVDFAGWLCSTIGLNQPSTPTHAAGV

SMILES | IC50 [5, 16] [nM] | IC50 [6, 17] [nM] | IC50 [7, 18] [nM] | IC50 [8, 19] [nM] | other results
COc1ccc(-c2ccc3c(N4CCOC[C@H]4C)nc(N4CCOC[C@H]4C)nc3n2)cc1CO [AZD 8055] |  |  |  |  | IC50 [1]: > 1000 nM
O=C(NCCOCCOCCOCCNC(=O)c1ccccc1)c1ccccc1 [Compound 1] |  |  |  |  | Kp at 0.5 h ([2]; mouse, mesenteric lymph node / plasma, 0.5 hours, read-out: lymph/plasma ratio): ~0.6; Kp at 4 h [2, 15]: ~1; concentration at 4 h ([2]; mouse, mesenteric lymph node, read-out: lymphatic concentration): ~85 ng/mL; concentration at 4 h ([2]; mouse, plasma, read-out: plasma concentration): ~95 ng/mL
O=C(NCCCCCCCCCCCNC(=O)c1ccccc1)c1ccccc1 [Compound 2] |  |  |  |  | concentrations in tissues tested, compared to Compound 1 ([2]; plasma, mesenteric lymph node, fat): much lower concentrations in all tissues tested; Kp ([2]; mouse, mesenteric lymph node / plasma, between time points 0.5, 2, and 4 hours, read-out: lymph/plasma ratios): 3 to 5
O=C(NCCOCCOCCOCCNC(=O)c1cccc2ccccc12)c1cccc2ccccc12 [Compound 3] |  |  |  |  | Kp at 4 h [2, 15]: ~5
O=C(NCCCCCCCCCCCNC(=O)c1cccc2ccccc12)c1cccc2ccccc12 [Compound 4] |  |  |  |  | Kp at 4 h [2, 15]: ~6
O=C(NOC[C@H](O)CO)c1ccc(F)c(F)c1Nc1ccc(I)cc1F [Compound 901, reference compound] |  |  |  |  | Kp at 4 h [3]: ~1.2
O=C(O)CCOCCOCCOCCONC(=O)c1ccc(F)c(F)c1Nc1ccc(I)cc1F [MV6-8] |  |  |  |  | IC50 [4]: 72.3 ± 1.9 nM
CC(=O)N(C)CCNc1nc(N2CCOCC2)nc(-n2c(C(F)F)nc3ccccc32)n1 [ST-5-31] | 11.7 ± 2.2 | 404 ± 63 | 55.2 ± 11.5 | 10.3 ± 1 | 
OCCN(CCO)c1nc(N2CCOCC2)nc(-n2c(C(F)F)nc3ccccc32)n1 [ST-5-32] | 9.9 ± 0.4 | 74 ± 5.7 | 14.6 ± 1.4 | 3.74 ± 1 | 
CN(C)CCN(CCO)c1nc(N2CCOCC2)nc(-n2c(C(F)F)nc3ccccc32)n1 [ST-5-44] | 46.7 ± 3.3 | 627 ± 174 | 869 ± 11 | 148 ± 22 | 
NOCCOCCOCCOCCN(CCO)c1nc(N2CCOCC2)nc(-n2c(C(F)F)nc3ccccc32)n1 [ST-5-46] | 8.6 ± 1.2 | 1080 ± 143 | 137 ± 21 | 10.9 ± 0.7 | 
O=C(NOCCOCCOCCOCCN(CCO)c1nc(N2CCOCC2)nc(-n2c(C(F)F)nc3ccccc32)n1)c1ccc(F)c(F)c1Nc1ccc(I)cc1F [ST-5-47] | 137 ± 7 | 3880 ± 725 | 2570 ± 364 | 107 ± 21 | IC50 [4]: 352 ± 2 nM
NOCCOCCOCCOCCNc1nc(N2CCOCC2)nc(-n2c(C(F)F)nc3ccccc32)n1 [ST-5-50] | 12.6 ± 1 | 1870 ± 245 | 502 ± 20 | 89.3 ± 9.5 | 
COCCN(CCO)c1nc(N2CCOCC2)nc(-n2c(C(F)F)nc3ccccc32)n1 [ST-6-01] | 8.9 ± 0.5 | 136 ± 6.4 | 30.7 ± 0.9 | 5.1 ± 1.1 | 
O=C(NOCCOCCOCCOCCNc1nc(N2CCOCC2)nc(-n2c(C(F)F)nc3ccccc32)n1)c1ccc(F)c(F)c1Nc1ccc(F)cc1F [ST-6-02] | 236 ± 29 | 1540 ± 188 | 2740 ± 485 | 130 ± 13 | IC50 [4]: 124 ± 11 nM
O=C(NOCCOCCOCCOCCN1CCN(c2nc(N3CCOCC3)nc(-n3c(C(F)F)nc4ccccc43)n2)CC1)c1ccc(F)c(F)c1Nc1ccc(I)cc1F [ST-162] |  |  |  |  | tumor growth [9]: tumor stasis; down regulation of pERK1/2 and pAKT in cells [10]: down regulate; IC50 ([5]; Table 10B, inhibitory activity, unit inferred, read-out: PI3Kδ): 942 ± 120 nM; IC50 [8, 20]: 191 ± 64 nM
O=C(NOCCOCCOCCOCCC(=O)N1CCN(c2nc(N3CCOCC3)nc(-n3c(C(F)F)nc4ccccc43)n2)CC1)c1ccc(F)c(F)c1Nc1ccc(I)cc1F [ST-168] |  |  |  |  | Kp at 4 h [3]: ~120; partitioning between lymphatic/plasma over time ([3]; single oral dose of 400 mg/kg in ORA-Plus): maintained over a 24 hour time period; lymphatic uptake (tissue concentration levels) ([3]; single oral doses of 100 mg/kg and 400 mg/kg in Maisine, 2, 4, and 24 hour): extraordinarily high lymphatic uptake; in vivo activity for suppression of MEK1/PI3K kinase activities in solid tumors, compared to ST-162 ([9]; 400 mg/kg oral gavage once daily, A375 xenografts): superior in vivo activity; tumor growth [9]: tumor stasis; down regulation of pERK1/2 and pAKT in cells [10]: down regulate; tolerance / observed toxicities [11]: no observed toxicities; reversal of lung fibroproliferative disease and pleural thickness (CT) [12]: strong activity for reversal; bioavailability following administration [13]: bioavailable; IC50 ([6]; Table 10B, inhibitory activity, unit inferred, read-out: PI3Kβ): 1480 ± 377 nM; IC50 ([7]; Table 10B, inhibitory activity, unit inferred, read-out: PI3Kγ): 2290 ± 241 nM; IC50 [8, 20]: 69.2 ± 2.2 nM
O=C(NOCCOCCOCCOCCC(=O)N1CCN(c2cnc3ccc(-c4cnc(Cl)c(NS(=O)(=O)c5ccc(F)cc5)c4)cc3n2)CC1)c1ccc(F)c(F)c1Nc1ccc(I)cc1F [ST-182] |  |  |  |  | reversal of lung fibroproliferative disease and pleural thickness (CT) [12]: strong activity for reversal; transport into the lymphatics after cycloheximide pretreatment [14]: significantly reduced
